Assay results reported in patent US20040122033A1, “Combination therapy for the treatment of obesity” (priority 2002, published 2004).
Read-outs that look alike come from different tables or passages of the source.

How the values were obtained:
[1] = in vivo; cited from earlier work
[2] = test system: wild type and MCH1R KO mice; assay: CB-1 inverse agonist - MCH1R knock out mouse study (2 hour and overnight food intake); type: in vivo; settings: 5 mg/kg orally
Method: AM251 was given to wild type and MCH1R KO mice orally at 5 mg/kg. Two hour and overnight food intake were measured.

[3] = test system: wild type, NPY KO mice, and AGRP-NPY double KO mice; assay: CB-1 inverse agonist - NPY knock out mouse study (overnight food intake); type: in vivo; settings: 3 mg/kg orally
Method: AM25 1 was given to wild type, NPY KO Mice, and AGRP-NPY double KO mice orally at 3 mg/kg. Overnight food intake was measured.

[4] = test system: Wild type or MCH1R KO mice; settings: for 2 hour food intake: 1 μg MT-II icv at onset of dark cycle, vs aCSF vehicle
Method: Wild type or MCH1R KO mice were implanted with intracerebroventricular (icv) cannulae for icv administration of compounds. One microgram of MT-II was given by icv injection per animal at the onset of dark cycle and food intake was measured 2 hours post-injection. Overnight body weight differences were also measured. Artificial cerebrospinal fluid (aCSF) was used as a vehicle to dissolve MT-II.

CC1(C)O[C@@H]2[C@@H](CO[C@@]3(COS(N)(=O)=O)OC(C)(C)O[C@@H]23)O1 [Topiramate]
weight loss [1]: increase weight loss

Cc1c(C(=O)NN2CCCCC2)nn(-c2ccc(Cl)cc2Cl)c1-c1ccc(I)cc1 [AM251]
2 hour food intake ([2]; MCH1R KO mice): significantly inhibited | overnight food intake ([2]; MCH1R KO mice, 5 mg/kg): inhibits | overnight food intake ([2]; MCH1R KO mice, listed as AM 251, 5 mg/kg): significantly inhibited | 2 hour food intake ([2]; wild type mice): significantly inhibited | overnight food intake ([2]; wild type mice, 5 mg/kg): inhibits | overnight food intake ([2]; wild type mice, listed as AM 251, 5 mg/kg): significantly inhibited | overnight food intake ([3]; AGRP-NPY double KO mice): significantly inhibits | overnight food intake ([3]; NPY KO mice): significantly inhibits | overnight food intake ([3]; wild type mice): significantly inhibits

Melanotan-II [MT-II]
overnight body weight compared to vehicle treated mice ([4]; MCH1R KO mice, 1 μg MT-II icv): reduced body weight | 2 hour food intake ([4]; MCH1R KO mice): significantly inhibited | decrease of overnight food intake ([4]; MCH-1R knock out mice, 1 μg MT-II icv, overnight): greater than 80% | decrease in food intake, MCH-1R knock out mice versus wild type mice ([4]; MT-II treated MCH-1R knock out mice compared with MT-II treated wild type mice, FIG. 1): significantly greater decrease in food intake | overnight decrease in bodyweight, MCH-1R knock out mice versus wild type mice ([4]; MT-II treated MCH-1R knock out mice compared with MT-II treated wild type mice, FIG. 2): greater overnight decrease in bodyweight | overnight body weight compared to vehicle treated mice ([4]; wild type mice, 1 μg MT-II icv): reduced body weight | 2 hour food intake ([4]; wild type mice): significantly inhibited
